Test results as given in PubChem BioAssay (NCI).
Where “and” joins values, the source holds several entries; their conditions need not be identical. Equal values may be shown once.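 Grown in 96-well plates, cells were treated for 48 hours with each compound at five concentrations. Insufficient inhibition: endpoint recorded as highest concentration tested. Here, GI50 denotes the concentration required for 50% inhibition of growth. At the TGI there is no net growth.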

How the values were obtained:
Test in all cases: NCI-60 cell line screen, 48 h
NCI-H226 lung = test system: NCI-H226 lung
A549 NSCLC = test system: A549 NSCLC
OVCAR-4 ovarian = test system: OVCAR-4 ovarian
SR leukemia = test system: SR leukemia
RPMI-8226 leukemia = test system: RPMI-8226 leukemia
UO-31 renal = test system: UO-31 renal
MDA-MB-231 breast = test system: MDA-MB-231 breast

SMILES	GI50 (NCI-H226 lung)	TGI (NCI-H226 lung)	GI50 (A549 NSCLC)	TGI (A549 NSCLC)	GI50 (OVCAR-4 ovarian)	TGI (OVCAR-4 ovarian)	GI50 (SR leukemia) [µM]	TGI (SR leukemia) [µM]	GI50 (RPMI-8226 leukemia)	TGI (RPMI-8226 leukemia)	GI50 (UO-31 renal)	TGI (UO-31 renal)	GI50 (MDA-MB-231 breast)	TGI (MDA-MB-231 breast)
COc1ccc2c(c1)O/C(=C\c1ccc([N+](=O)[O-])s1)C2=O	> 31.3 µM	> 100 µM	3.46 µM	> 100 µM	1.59 µM	4.91 µM	0.12	0.759	1.69 µM	> 100 µM				
COC(=O)C1=C(O)C(C(=O)OC)[C@@]2(O)[C@@H](C(=O)OC)C(c3ccccc3Cl)C[C@@H]1[C@@H]2C(=O)OC (stereo not given in full)	3.77 µM	15.1 µM	9.04 µM	53.9 µM	3.44 µM	13.8 µM			1.88 µM	6.2 µM	6.14 µM	19.8 µM	6.56 µM	20.7 µM
Nc1nc(Cl)c2ncn(Cc3ccc(-c4ccc(CCl)cc4)cc3)c2n1	3.47 µM	17.9 µM	19.3 µM	> 100 µM	8.12 µM	43.6 µM	3.09	> 100	1.43 µM	5.58 µM	17.7 µM	> 100 µM		
N#CC1C(=O)NC(=O)C(C#N)C1c1ccc(Cl)c(Cl)c1 (stereo not given)				> 100 µM		> 100 µM		41.6				33.2 µM		> 100 µM
COn1cc(C(=O)N=C(SC)SC)c2ccccc21	14.1 µM	51.2 µM	23.9 µM	87.6 µM	> 100 µM	> 100 µM			17.9 µM	> 100 µM	40.9 µM	> 100 µM	17.5 µM	51.3 µM
O=C(N/N=C/c1cccc(O)c1)c1ccc(C(F)(F)F)nc1Nc1cccc(C(F)(F)F)c1	1.28 µM	3.51 µM	2.43 µM	7.84 µM	0.955 µM	22.8 µM			1.32 µM	3.99 µM	1.59 µM	5.08 µM	1.08 µM	3.02 µM
C[C@H](CCCOS(C)(=O)=O)[C@H]1CC[C@H]2[C@@H]3CC[C@@H]4C[C@H](OS(C)(=O)=O)CC[C@]4(C)[C@H]3CC[C@]12C	418 µM		793 µM		1850 µM	> 2500 µM			69.9 µM	1260 µM	> 2500 µM	> 2500 µM	503 µM	
COc1ccc(CNC(=O)c2c(C)n([O-])c3cc(F)c(F)cc3[n+]2=O)cc1	16.5 µM	41 µM	17.6 µM	36.8 µM	13.7 µM	26.9 µM			6.4 µM	30.9 µM	12.8 µM	26.6 µM	12.2 µM	25.5 µM
CN(C)c1ccc(/C=N/NC(=O)c2cnc3ccccc3c2)cc1		> 100 µM		> 100 µM		> 100 µM				> 100 µM		> 100 µM		> 100 µM
O=C1CC2OCC=C3CN4CCC56c7ccccc7N1C5C2C3CC46 (stereo not given) (tested in a mixture with another compound)	> 50 µg/mL	> 50 µg/mL	> 50 µg/mL	> 50 µg/mL	> 50 µg/mL	> 50 µg/mL			> 50 µg/mL	> 50 µg/mL	> 50 µg/mL	> 50 µg/mL	> 50 µg/mL	> 50 µg/mL
CC1SC(c2cccc(Cl)c2)N(NC(=O)C(O)c2ccccc2)C1=O (stereo not given)	> 100 µM	> 100 µM	86.7 µM	> 100 µM	75.4 µM	> 100 µM			43.2 µM	> 100 µM	> 100 µM	> 100 µM	> 100 µM	> 100 µM
COc1ccc(OC)c(/C=C/C(=O)c2ccc3cc(OC)ccc3c2)c1	> 50 µM	> 50 µM	9.52 µM	> 32.4 µM	10.8 µM	> 50 µM			4.53 µM	> 37.8 µM		> 15.2 µM	> 50 µM	> 50 µM
CC1(C)N=C(N)N=C(N)N1c1ccc(CCC(=O)Nc2cccc(S(=O)(=O)F)c2)cc1	> 100 µM	> 100 µM	3.32 µM	> 100 µM	> 100 µM	> 100 µM			36.4 µM	> 100 µM	13.2 µM	> 100 µM	86.8 µM	> 100 µM
C=C1C(OCCO)OC2O[C@]3(C)CCC4[C@H](C)CCC1C24OO3 (stereo not given in full)			28.4 µM	> 100 µM	6.12 µM	> 100 µM	2.36	26.2	0.591 µM	16.5 µM	2.78 µM	10.2 µM		
O=C(CN1CCN(c2ccccn2)CC1)Nc1ccc(Cl)cc1C(=O)c1ccccc1Cl	> 100 µM	> 100 µM	14.3 µM	> 100 µM	13.9 µM	> 100 µM	6.63	> 100	4.64 µM	> 100 µM	9.38 µM	> 100 µM		
NC(N)=NC(N)=NCc1ccco1	> 1250 µM	> 1250 µM	340 µM and 325 µM	> 1250 µM	316 µM	> 1250 µM			818 µM		> 1250 µM	> 1250 µM	> 1250 µM	> 1250 µM
